According to patent US20240246964A1 (Arbutus Biopharma Corporation, priority 2021, published 2024):

What follows are compounds tested against human PD-L1 (Homo sapiens (Human), UniProt Q9NZQ7) (assay: T cell activation luciferase reporter cell culture system (T Cell Activation Assay)). Details: luciferase reporter assay; PD-L1 aAPC/CHO-K1 cells with PD-1 effector Jurkat T cells.
Type: cell-based

Chain of human PD-L1 (Q9NZQ7 19-290): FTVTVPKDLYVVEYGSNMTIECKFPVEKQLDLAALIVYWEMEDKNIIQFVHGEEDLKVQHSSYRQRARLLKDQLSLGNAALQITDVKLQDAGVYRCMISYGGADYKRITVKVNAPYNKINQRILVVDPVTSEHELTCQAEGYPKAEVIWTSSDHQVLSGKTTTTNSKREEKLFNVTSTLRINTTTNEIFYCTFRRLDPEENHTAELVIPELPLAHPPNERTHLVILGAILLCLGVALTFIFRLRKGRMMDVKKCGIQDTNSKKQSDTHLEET

| EC50 | Structure (SMILES) |
| --- | --- |
| 28.9 nM | COc1cc(-c2nccc(-c3cccc(-c4ccc(CN5CC6(CNC(=O)C6)C5)c(OC)n4)c3Cl)c2Cl)ccc1CN[C@H]1CC[C@H](O)CC1 [Example 502, 2-((6-(2-Chloro-3-(3-chloro-2-(4-((((1r,4r)-4-hydroxycyclohexyl)-amino)-methyl)-3-methoxyphenyl)pyridin-4-yl)phenyl)-2-methoxypyridin-3-yl)methyl)-2,6-diazaspiro[3.4]octan-7-one] |
| 20.9 nM | COc1cc(-c2nccc(-c3cccc(-c4ccc(CNC[C@@H]5CCC(=O)N5)c(OC)n4)c3Cl)c2Cl)cc(F)c1CNC[C@@H]1CCC(=O)N1 [Cmpd 10, (S)-5-((((6-(2-chloro-3-(3-chloro-2-(3-fluoro-5-methoxy-4-(((((S)-5-oxopyrrolidin-2-yl)methyl)amino)methyl)phenyl)pyridin-4-yl)phenyl)-2-methoxypyridin-3-yl)methyl)amino)methyl)pyrrolidin-2-one] |
| 79.3 nM | COc1cc(-c2nccc(-c3cccc(-c4ccc(CN(C)C5CCN(C(C)=O)CC5)c(OC)n4)c3Cl)c2Cl)ccc1CNC1CCOCC1 [Example 469, 1-(4-(((6-(2-chloro-3-(3-chloro-2-(3-methoxy-4-(((tetrahydro-2H-pyran-4-yl)amino)methyl)phenyl)pyridin-4-yl)phenyl)-2-methoxypyridin-3-yl)methyl)(methyl)amino)piperidin-1-yl)ethan-1-one] |
| 195 nM | COc1cc(-c2nccc(-c3cccc(-c4ccc(CNC5CCSCC5)c(OC)n4)c3Cl)c2Cl)ccc1CNC1CCSCC1 [Example 484, N-((6-(2-Chloro-3-(3-chloro-2-(3-methoxy-4-(((tetrahydro-2H-thiopyran-4-yl)amino)methyl)phenyl)pyridin-4-yl)phenyl)-2-methoxypyridin-3-yl)methyl)tetrahydro-2H-thiopyran-4-amine] |
| 54.1 nM | COc1cc(-c2nccc(-c3cccc(-c4ccc(CNC[C@@H]5CCC(=O)N5)c(OC)n4)c3Cl)c2Cl)cc2c1CCN(C[C@H](C)O)C2 [Cmpd 44, (S)-5-((((6-(2-chloro-3-(3-chloro-2-(2-((S)-2-hydroxypropyl)-5-methoxy-1,2,3,4-tetrahydroisoquinolin-7-yl)pyridin-4-yl)phenyl)-2-methoxypyridin-3-yl)methyl)amino)methyl)pyrrolidin-2-one] |
| 19.8 nM | COc1cc(-c2nccc(-c3cccc(-c4ccc5c(CNC6CCN(C(C)=O)CC6)cn(C)c5n4)c3Cl)c2Cl)ccc1CNC[C@@H]1CCC(=O)N1 [Cmpd 57, (S)-5-(((4-(4-(3-(3-(((1-acetylpiperidin-4-yl)amino)methyl)-1-methyl-1H-pyrrolo[2,3-b]pyridin-6-yl)-2-chlorophenyl)-3-chloropyridin-2-yl)-2-methoxybenzyl)amino)methyl)pyrrolidin-2-one] |
| 56.6 nM | COc1nc(-c2cccc(-c3ccnc(-c4cc(Cl)c5c(c4)CCN(C[C@H](C)O)C5)c3Cl)c2Cl)ccc1CNC[C@@H]1CCC(=O)N1 [Cmpd 69, (S)-5-((((6-(2-chloro-3-(3-chloro-2-(8-chloro-2-((S)-2-hydroxypropyl)-1,2,3,4-tetrahydroisoquinolin-6-yl)pyridin-4-yl)phenyl)-2-methoxypyridin-3-yl)methyl)amino)methyl)pyrrolidin-2-one] |
| 37 nM | COc1cc(-c2nccc(-c3cccc(-c4ccc(CNC[C@@H]5CCC(=O)N5)c(OC)n4)c3Cl)c2Cl)cc2c1CN(CCC(C)(C)O)CC2 [Cmpd 49, (S)-5-((((6-(2-chloro-3-(3-chloro-2-(2-(3-hydroxy-3-methylbutyl)-8-methoxy-1,2,3,4-tetrahydroisoquinolin-6-yl)pyridin-4-yl)phenyl)-2-methoxypyridin-3-yl)methyl)amino)methyl)pyrrolidin-2-one] |
| 81.7 nM | COc1cc(-c2nccc(-c3cccc(-c4ccc(CN5CC6(C5)CN(C(C)=O)C6)c(OC)n4)c3Cl)c2Cl)cc2c1CN(CCCF)CC2 [Example 249, 1-(6-((6-(2-Chloro-3-(3-chloro-2-(2-(3-fluoropropyl)-8-methoxy-1,2,3,4-tetrahydroisoquinolin-6-yl)pyridin-4-yl)phenyl)-2-methoxypyridin-3-yl)methyl)-2,6-diazaspiro[3.3]heptan-2-yl)ethan-1-one] |
